Experiments:
[1] = test system: male Swiss Webster mice; experiment: Spontaneous locomotor activity dose response study (NIDA MDD protocol); format: in vivo, mouse; conditions: 3, 10, 30 or 100 mg/kg IP, FIGS. 4 and 5
Procedure: A dose response study was conducted of locomotor depression induced by the compound of Example 3, according to NIDA's Medication Development Division (MDD) locomoter activity studies standard protocol. The study was conducted using 40 Digiscan locomotor activity testing chambers (40.5×40.5×30.5 cm) housed in sets of two, within sound attenuating chambers. A panel of infrared beams (16 beams) and corresponding photodetectors were located in the horizontal direction along the sides of each activity chamber. A 7.5 W incandescent light above each chamber provided dim illumination. Fans provided an 80 dB ambient noise level within the chamber. Separate groups of 8 non-habituated male Swiss Webster mice (Hsd:ND4, aged 2-3 months) were injected via the intraperitoneal (IP) route with either vehicle (2% methyl cellulose) or the compound of Example 3, above, (3, 10, 30 or 100 mg/kg) twenty minutes prior to locomotor activity testing. Just piro to placement in the apparatus, all mice received a saline injection IP. In all studies, horizontal activity (interruption of photocell beams) was measured for 1 hour within 10 minute periods. Testing was conducted with one mouse per activity chamber.
The same protocol was followed in a study of locomotor depression induced by the compound of Example 6. […]

[2] = test system: male mice; experiment: Accelerating rotarod assay; format: in vivo, mouse; conditions: 10 and 90 mg/kg, FIG. 11
Procedure: Rotarod assays were also performed using the experimental protocol and design set forth below. Individually housed male mice aged 8-12 weeks were used for this experiment. Mice were maintained on a reverse L:D/12 p.m.: 12 a.m. cycle in a barrier facility with food and water available ad libitum. Testing occurred towards the end of the light cycle between 6-12 a.m. Mice were acclimated to the testing room for at least 30 minutes.
The assay was carried out using four EzRod test chambers kept in a laminar hood for testing. For the accelerating rotarod paradigm, mice were given 10 trials with the maximum duration of 3 minute and a 30-second intertrial interral (ITI). Each mouse was placed on the EZRod machines and the latency to fall was recorded for all trials. If the mouse fell or 3 minutes elapsed, the mouse was left in the bottom of the EzRod test chamber for 30 seconds before starting the next trial.
The latency to fall was compared between the two groups by analysis of variance (ANOVA) with repeated measures.

[3] = Brain drug concentration by different routes of administration; format: in vivo, C57BL/6 mice; conditions: for Brain Drug Concentration: time 0 (pre-dose); for concentration at 5 min / concentration at 15 min / concentration at 30 min / concentration at 60 min / concentration at 120 min / concentration at 240 min / concentration at 480 min: C57BL/6, mouse, brain
Procedure: The following materials and methods are provided to facilitate the practice of Example 9, in which drug concentration in certain biological samples were assessed using different routes of administration.
Parameters Used in Dosing and Drug Administration of the Compound of Example 3:
Adult C57BL/6 mice (preferred 16 weeks old).
Three mice per time point. If all three routes are conducted in same day, one group of pre-dose is efficient.
In the studies using adult C57BL/6 mice (preferably approximately 16 weeks old), dosing and drug administration parameters for the compound of Example 3 were explored. Clearly, the compound is suitable for oral administration and lasts in the plasma up to 2-3 hours.

In the case of `Cc1ccc(C[n+]2[cH-]/c(=N\C(=O)Nc3ccccc3)on2)cc1` [Example 3, N-phenylcarbamoyl-3-(p-methyl-benzyl)-sydnonimine], the “Effect on spontaneous locomotor activity” value [1] was “dose dependent suppression of spontaneous locomotor activity”, the Rotarod performance [2] was “did not affect rotarod performance” and the “Brain Drug Concentration” value ([3]; 10 mg/kg (IP)) was 0.00 ng/mL. The “Brain Drug Concentration” value ([3]; 10 mg/kg (IV)) was 95.10 ng/mL, the “Brain Drug Concentration” value ([3]; 10 mg/kg (PO)) was 107.55 ng/mL and the “Brain Drug Concentration” value ([3]; 30 mg/kg (PO)) was 123.97 ng/mL. For the same compound, the concentration at 5 min ([3]; intraperitoneal, 10 mg/kg (IP)) was 1460 ng/mL, the concentration at 15 min ([3]; intraperitoneal, 10 mg/kg (IP)) was 374 ng/mL and the concentration at 30 min ([3]; intraperitoneal, 10 mg/kg (IP)) was 242 ng/mL. It also gave a concentration at 60 min ([3]; intraperitoneal, 10 mg/kg (IP)) of 190 ng/mL, a concentration at 120 min ([3]; intraperitoneal, 10 mg/kg (IP)) of 70.2 ng/mL and a concentration at 240 min ([3]; intraperitoneal, 10 mg/kg (IP)) of 143 ng/mL. The concentration at 480 min ([3]; intraperitoneal, 10 mg/kg (IP)) was 123 ng/mL, the concentration at 5 min ([3]; 10 mg/kg (IV)) was 2310 ng/mL and the concentration at 15 min ([3]; 10 mg/kg (IV)) was 1720 ng/mL. For the same compound, the concentration at 30 min ([3]; 10 mg/kg (IV)) was 1140 ng/mL, the concentration at 60 min ([3]; 10 mg/kg (IV)) was 464 ng/mL and the concentration at 120 min ([3]; 10 mg/kg (IV)) was 78.7 ng/mL. The concentration at 240 min ([3]; 10 mg/kg (IV)) was 178 ng/mL, the concentration at 480 min ([3]; 10 mg/kg (IV)) was 49 ng/mL and the concentration at 5 min ([3]; 10 mg/kg (PO)) was 418 ng/mL. For the same compound, the concentration at 15 min ([3]; 10 mg/kg (PO)) was 298 ng/mL, the concentration at 30 min ([3]; 10 mg/kg (PO)) was 150 ng/mL and the concentration at 60 min ([3]; 10 mg/kg (PO)) was 158 ng/mL. The concentration at 120 min ([3]; 10 mg/kg (PO)) was 165 ng/mL, the concentration at 240 min ([3]; 10 mg/kg (PO)) was 97.5 ng/mL and the concentration at 480 min ([3]; 10 mg/kg (PO)) was 163 ng/mL. The concentration at 5 min ([3]; 30 mg/kg (PO)) was 869 ng/mL, the concentration at 15 min ([3]; 30 mg/kg (PO)) was 845 ng/mL and the concentration at 30 min ([3]; 30 mg/kg (PO)) was 627 ng/mL. The concentration at 60 min ([3]; 30 mg/kg (PO)) was 218 ng/mL, the concentration at 120 min ([3]; 30 mg/kg (PO)) was 203 ng/mL and the concentration at 240 min ([3]; 30 mg/kg (PO)) was 183 ng/mL. The concentration at 480 min ([3]; 30 mg/kg (PO)) was 168 ng/mL and the Brain penetration ([3]; administered orally or via intravenous administration) was “reaches the brain”.

From patent US9604945B2, “Sydnonimines-specific dopamine reuptake inhibitors and their use in treating dopamine related disorders” (priority 2007, dated 2017)
